Format in all cases: cell-based
One assay deals with Piricularia oryzae. Briefly: microbe, parasite or virus in culture. The note with it: Glucosepotato agar, 2-3 days.
The subject of the next assay is Sclerotinia cinerea. Briefly: Comparison of anti-phytopathogenic activity, MIC. The settings on record: Glucosepotato agar, 2-3 days.
The subject of a further assay is Pellicularia sasakii. Briefly: Comparison of anti-phytopathogenic activity, MIC.
Another assay relates to Botrytis cinerea. Briefly: Comparison of anti-phytopathogenic activity, MIC. The settings on record: Glucosepotato agar, 2-3 days.
The subject of another assay is Alternaria kikuchiana. Briefly: Comparison of anti-phytopathogenic activity, MIC. The note with it: Glucosepotato agar, 2-3 days.
Setting [1] is: B, laboratory stock culture, Glucosepotato agar, 2-3 days.
Where [2] appears, read: A, isolate from infected plant, Glucosepotato agar, 2-3 days.

Converted amounts (≈) assume the structure as drawn. Where two headings read alike, the source gives them in different places.

As for `CN(CCC(N)CC(=O)NC1C=CC(n2ccc(N)nc2=O)OC1C(=O)O)C(=N)N` (stereo not shown) [Blasticidin S], the MIC against Piricularia oryzae (A, isolate from infected plant) is above 100 µg/mL; in the assay with Piricularia oryzae (B, laboratory stock culture), 25 µg/mL (≈ 59.2 µM); in the assay with Sclerotinia cinerea (Sclerotinia, A, isolate from infected plant) it was 50 µg/mL (≈ 118 µM); against Sclerotinia cinerea (Sclerotinia, B, laboratory stock culture) it was 25 µg/mL (≈ 59.2 µM); in the assay with Pellicularia sasakii, above 100 µg/mL; with Pellicularia sasakii (setting [1]) it was above 100 µg/mL. The MIC with Botrytis cinerea (Botrytis cinerea, A, isolate from infected plant) turned out to be 50 µg/mL (≈ 118 µM); in the assay with Botrytis cinerea (Botrytis cinerea, B, laboratory stock culture) it was 100 µg/mL (≈ 237 µM); with Alternaria kikuchiana (Alternaria kikuchiana, A, isolate from infected plant), 50 µg/mL (≈ 118 µM); against Alternaria kikuchiana (Alternaria kikuchiana, B, laboratory stock culture) it was 12.5 µg/mL (≈ 29.6 µM).
Consider `C[C@@H](N)C(=O)N[C@H]1CO[C@H](O)[C@H](N)[C@H]1O` [Prumycin], for which the MIC with Piricularia oryzae (A, isolate from infected plant) was above 100 µg/mL; against Piricularia oryzae (B, laboratory stock culture), 100 µg/mL (≈ 456 µM); with Sclerotinia cinerea (A, isolate from infected plant) it was 1.56 µg/mL (≈ 7.12 µM); in the assay on Sclerotinia cinerea (B, laboratory stock culture) it was 6.25 µg/mL (≈ 28.5 µM); against Pellicularia sasakii (setting [2]) it was above 100 µg/mL; in the assay on Pellicularia sasakii (setting [1]), above 100 µg/mL. The MIC was 100 µg/mL (≈ 456 µM) with Botrytis cinerea (A, isolate from infected plant); 50 µg/mL (≈ 228 µM) with Botrytis cinerea (B, laboratory stock culture); above 100 µg/mL with Alternaria kikuchiana (A, isolate from infected plant); 50 µg/mL (≈ 228 µM) against Alternaria kikuchiana (B, laboratory stock culture).
Consider Venturicidin, for which the MIC was below 0.03 µg/mL against Piricularia oryzae (A, isolate from infected plant); below 0.03 µg/mL against Piricularia oryzae (B, laboratory stock culture); 0.78 µg/mL with Sclerotinia cinerea (A, isolate from infected plant); 0.78 µg/mL in the assay with Sclerotinia cinerea (B, laboratory stock culture); 1.56 µg/mL against Pellicularia sasakii (setting [2]); above 25 µg/mL with Pellicularia sasakii (setting [1]). Besides, the MIC against Botrytis cinerea (B, laboratory stock culture) is above 25 µg/mL; against Alternaria kikuchiana (B, laboratory stock culture), above 25 µg/mL.

These data come from US4493845A, “Antibiotic AM-3603” (Kitasato Kenkyusho, priority 1980, dated 1985).
